# Source: publication PMC9014415, “Repositioning of a Diaminothiazole Series Confirmed to Target the Cyclin-Dependent Kinase CRK12 for Use in the Treatment of African Animal Trypanosomiasis” (Journal of Medicinal Chemistry, 2022)
# Values joined by “and” are separate entries in the source; they are usually repeats but may differ in a detail not shown here. Identical values can stand only once. “Also recorded” adds a separate entry of the source.
# Key:
# [1] = Aqueous kinetic solubility by laser nephelometry; format: physicochemical; details: MilliQ water with 2.5% DMSO, read-out: Sol (kinetic solubility); for solubility kinetic at 24 h: pH 7.4, range 250-12 µM
# Protocol: 2. Drug metabolism and pharmacokinetics
# The aqueous solubility of test compounds was measured using laser nephelometry. Compounds were subject to serial dilution from 10 mM to 0.5 mM in DMSO. Aliquot were then mixed with MilliQ water to obtain an aqueous dilution plate with a final concentration range of 250 – 12 µM. The final DMSO concentration in these plates was 2.5%. Triplicate aliquots were transferred to a flat-bottomed polystyrene plate which was immediately read on a NEPHELOstar nephelometer (BMG Lab Technologies). The laser scatter caused by insoluble particulates (relative nephelometry units, RNU) was plotted against compound concentration using a segmental regression fit, with the point of inflection being quoted as the compound’s aqueous solubility (µM).
# Solubility of compound 1 was measured by a different method. Here, compound 1 was dissolved in DMSO to give a 10 mM solution and solubility test samples prepared by adding a volume (5 µL) of this stock solution to phosphate buffered saline, pH 7.4 (195 µL, Sigma-Aldrich). This
# T. congolense = test: NMRI mouse efficacy model, T. congolense; format: in vivo, Trypanosoma congolense; details: for Efficacy at 10 mg/kg SC for 4 days, T. congo / Efficacy, T. congo: mice; for Efficacy at 10 mg/kg SC for 4 days, T. congo: 10 mg/kg SC once daily for 4 days
# Protocol: 3. In vivo efficacy studies
# The T. congolense (IL3000) and T. vivax (ILRAD V34) cell lines7, 8, both originating from Kenya, were used in the following in vivo mouse studies. For studies in cattle, either Trypanosoma congolense (savannah) KONT 2/133, 224) or T. vivax STIB 719 was used.
# 3.1 Mouse efficacy studies for T. brucei brucei.
# Mouse efficacy studies for T. brucei brucei were carried out as previously detailed.9 3.2 NMRI mouse efficacy studies for T. congolense and T. vivax.
# Mouse models of infections were carried out using standardized protocols. Briefly, 1 mL samples of cryopreserved T. congolense, or T. vivax-infected blood harvested directly from an infected mouse, were diluted with Hanks Balanced Salt Solution plus 20 mM glucose (HBSS+G) to 5 x 10^4 trypomastigotes/mL (5 x 105 for T. vivax). Female mice (NMRI) were inoculated IP on day 0 with 0.2 mL/animal (equivalent to ~ 1 x 104 T. congolense or ~ 1 x 105 T. vivax per animal). The level of parasitaemia was inspected microscopically on day 3 using tail blood smears, counting 20 high powered fields (× 400 magnification). For untreated or treated animals whose tail smears exceeded 50 parasites/field, precise parasite levels were established using a Neubauer haemocytometer; mice with a parasite burden over 1 x 108 were promptly and humanely terminated (T. congolense only, from our experience the mice will not survive for a further 24 h). Alternatively, in the case of T. vivax-infected mice the immune system will bring the infection to a sub-lethal level (below limit of detection) […]
# followed by cycles of high and low parasitaemia. Eventually mice infected with T. vivax succumb to the infection between 30 – 60 days post-infection.
# Suppression of parasitaemia - mouse
# On day 3 post-infection, animals were randomly allocated to groups, with 3 mice/group. Infected animals were dosed with one of the following: diaminazene diaceturate IP. – 40 mg/kg once only as a control (early-stage trypanocide used to clear the parasites in the systemic circulation and in tissues other than CNS), compound 1 (SC) at 3, 10, 30 and 50 mg free base/kg twice and once daily for 4 d or a single dose, or compound 2 (SC) at 3 and 10 mg free base /kg once daily for 4 d, once daily for 2 d or a single dose, one group of 3 mice acted as an untreated control group. The dose solutions were prepared daily, using 5% DMSO: 40% PEG400: 55% MilliQ H2O for test compounds and 10% DMSO: 90% peanut oil for standard drugs. Alternatively, compound 2 was delivered for 48 h via SC implanted ALZET osmotic pumps (6, 12, 25 and 50 mg free base/mL, vehicle: 50% DMSO […]
# and 50% deionized water).
# Response to treatment was determined by monitoring parasitaemia twice a week until day 21.
# After day 21, the mice were checked once a week until 63 d post-treatment. Mice surviving to the end of the experiment, and with blood smears clear of parasites, were considered cured. […]
# The parasites were obtained from a donor calf. This isolate is resistant to diminazene (20 mg/kg) and isometamidium (1 mg/kg) in cattle, and diminazene (7 mg/kg) and isometamidium (>1 mg/kg) in mice. Calves were parasitaemic by study day 6. Calves (n = 5) were treated with compound 1 (5 mg/kg, SC, twice 12 h apart) on study
# [2] = Bovine liver microsome stability; format: in vitro ADME; details: intrinsic clearance
# Protocol: 2.2 Microsomal stability studies […]
# (b) Bovine liver microsome stability. Test compounds (0.5 µM) were incubated with 0.5 mg/mL bovine liver microsomes (Xenotech LLC TM) in 50 mM potassium phosphate buffer, pH7.4 and the reaction initiated upon addition of excess NADPH (8 mg/mL in 50 mM potassium phosphate buffer, pH7.4).
# Aliquots (50 µL) of the incubation mixture were taken at time zero, 3, 6, 9, 15 and 30 min then mixed with acetonitrile (100 µL) to stop the reaction. An internal standard was added to all samples, prior to centrifugation (10 min, 1,665 g, RT) to sediment precipitated protein. Reaction plates were then sealed prior to UPLCMSMS analysis using a Quattro Premier XE (Waters corporation, USA).
# XLfit (IDBS, UK) was used to calculate the exponential decay and consequently the rate constant (k) from the ratio of peak area of test compound to internal standard at each timepoint. The rate of intrinsic clearance (CLi) of each test compound was then calculated using the following […]
# CLi(mL/min/g liver) = k x V x microsomal protein yield
# Where V (mL/mg protein) is the incubation volume/ mg protein added and microsomal protein yield is taken as 52.5 mg protein/ g of liver. Verapamil (0.5 µM) was used as a positive control to confirm acceptable assay performance. […]
# T. vivax = test: Ex vivo drug sensitivity assay, T. vivax (STIB 719/ILRAD 560); format: cell-based; details: Trypanosoma vivax
# Protocol: Test compounds were resuspended to a final concentration of 10 mg/mL in DMSO. […]
# 1.3 Ex vivo drug sensitivity assays - Trypanosoma vivax
# Since T. vivax cannot be cultured axenically, BSF trypanosomes were harvested from an infected mouse with high parasitemia via cardiac puncture and used directly in ex vivo assays. EC50 values were determined against T, vivax (STIB 719/ ILRAD 560) as previously described3, with minor modifications. Briefly, cell densities were determined using a Neubauer chamber and then diluted to a seeding density of 4 x 105 trypanosomes / mL. BSF trypanosomes were cultured in HMI-9 (IMDM) media containing 20% (v/v) bovine serum. Assay plates were incubated at 37 °C with 5 % CO2, for a total of 45 h prior to addition 10 µL of Resazurin (12.5 mg in 100 mL phosphate buffered saline, Aldrich) into each well, followed by a further 3 h incubation. Absorbance was read using a SpectraMax (Gemini XS) fluorescence reader at an excitation wavelength of 536 nm and an emission wavelength of 588 nm. EC50 values were determined using SOFTmax Pro 5.2 analysis […]
# software. […]
compound,measurement,setting,value
"CNCc1cc(F)c(C(=O)c2sc(N[C@H]3CC[C@H](NS(=O)(=O)CC(C)C)CC3)nc2N)c(F)c1.Cl [Compound 8, N-((trans)-4-((4-Amino-5-(2,6-difluoro-4-((methylamino)methyl)benzoylthiazol-2-yl)amino)cyclohexyl))-2-methylpropane-1-sulfonamide Hydrochloride]",solubility kinetic,[1]; range 250-12 µM,> 250 µM
same,"Efficacy at 10 mg/kg SC for 4 days, T. congo",T. congolense,Full cure (3/3)
same,Bovine Microsome Cli (BLM: bovine microsomal clearance),[2],0.5 mL/min/g
same,EC50,T. vivax,0.68 nM
"CC(C)CS(=O)(=O)N[C@H]1CC[C@H](Nc2nc(N)c(C(=O)c3c(F)cc(CN(C)C)cc3F)s2)CC1 [Compound 2, N-(trans)-[4-[[4-Amino-5-[4-(dimethylaminomethyl)-2,6-difluoro-benzoyl]thiazol-2-yl]amino]cyclohexyl]-2-methyl-propane-1-sulfonamide]",solubility kinetic at 24 h,[1],250 µM
same,"Efficacy in T. congolense-infected mice, implanted ALZET osmotic pumps","T. congolense; SC pump delivery, all dose levels",cured; also recorded: full cure
same,"Efficacy, T. congo",T. congolense; 3 mg/kg (head: SC for 4 days),Partial cure (2/3)
same,"Efficacy at 10 mg/kg SC for 4 days, T. congo",T. congolense; 10 mg/kg,fully curative; also recorded: Full cure; also recorded: Partial cure (1/3)
same,"Efficacy, T. congo",T. congolense; 10 mg/kg once daily for 2 days,Partial cure (2/3)
same,"Efficacy, T. congo","T. congolense; 10 mg/kg, regimen not restated, listed after the 3 mg/kg result",Full cure
same,Bovine Microsome Cli (BLM: bovine microsomal clearance),[2],1.1 mL/min/g
same,EC50,T. vivax,0.08 nM
"CC(C)CS(=O)(=O)N[C@H]1CC[C@H](Nc2nc(N)c(C(=O)c3c(F)cccc3F)s2)CC1 [Compound 1, N-((trans)-4-((4-Amino-5-(2,6-difluorobenzoyl)thiazol-2-yl)amino)cyclohexyl)-2-methylpropane-1-sulfonamide]",Acute T. congolense efficacy in mice,T. congolense; 3 mg/kg bid SC for 4 days,Partial cure (2/3)
same,Acute T. congolense efficacy in mice,T. congolense; 10 mg/kg bid SC for 4 days,Full cure
same,T. congolense efficacy in mice,"T. congolense; 10 mg/kg once daily for 4 days, SC",sterile cure
same,Acute T. congolense efficacy in mice,"T. congolense; 30 mg/kg, single dose, SC",Partial cure: (2/3)
same,Acute T. congolense efficacy in mice,"T. congolense; 50 mg/kg single dose, SC",sterile cure; also recorded: Full cure
same,Bovine Microsome Cli (BLM: bovine microsomal clearance),[2],<0.5 / 0.5 mL/min/g and <0.5 mL/min/g
same,EC50,T. vivax,95 nM
"CC(C)CS(=O)(=O)N[C@H]1CC[C@H](Nc2nc(N)c(C(=O)c3c(Cl)cccc3Cl)s2)CC1 [Compound 10, N-((trans)-4-((4-Amino-5-(2,6-dichlorobenzoyl)thiazol-2-yl)amino)cyclohexyl)-2-methylpropane-1-sulfonamide]",solubility kinetic at 24 h,[1],53 µM
same,"Efficacy, T. congo",T. congolense; 3 mg/kg (head: SC for 4 days),Full cure (3/3) 3 mg/kg
same,Bovine Microsome Cli (BLM: bovine microsomal clearance),[2],1.6 mL/min/g
same,EC50,T. vivax,0.47 nM
